Laboratory results from US20170209547A1, “N[…] USE IN […] AND ANXIETY IN PETS” (DOMES PHARMA, priority 2016, published 2017).

Tested on: male Wistar Han rats
Test: EDC test (anxiety test with electric probe burying), global anxiety score
Type: in vivo, rat
Conditions: Diazepam 3 mg/kg p.o. 60 min before the test
Description: Forty male Wistar Han rats (Crl:WI(Han), Charles River Laboratories, L'Arbresle, France), weighing from 250 to 275 g were used. Upon receipt, the rats were marked and split into groups of 3 or 4 animals in polycarbonate cages (Eurostandard type IIIH, 425×266×185 mm, Tecniplast, Lyon, France). The animals were housed in a climate-controlled animal house, at a temperature of […] and relative humidity of 50±20%. The rats had food (Teklad Global 2016, Harlan, Ganat, France) and drink ad libitum and were held in a day-night cycle inverted by 12 hours (day from 20:00 to 08:00). […]
The experimental device was placed in a room lit with a low intensity red light. A video camera connected to a digital recorder saved all behavioral sequences so that behavior of interest could be measured later. […]
The electric probe was inserted into the cage before the start of the test. […] After the electric shock, the rat's behavior was recorded for 5 min. […]
The following behaviors were quantified from video recordings made during the tests: • duration probe was buried; • number of stretches in the direction of the probe; • number of approaches to the probe; • number of flights from the probe. […]

Compound: CN1C(=O)CN=C(c2ccccc2)c2cc(Cl)ccc21 [Diazepam]
- Global anxiety score vs. vehicle group (Mann-Whitney test): significantly lower
- Global anxiety score, Median (n = 9, Vehicle median 111): 41
